The text below walks through data of patent US20110039795A1, “2'-O,3'-N-BRIDGED MACROLIDES” (priority 2008, published 2011).

Broadly, the inhibition in vivo is the percentage by which the read-out fell short of the control. Read a high inhibition in vivo as strong suppression.

For this assay, the system named is CD1 mice. Kind of assay: Phorbol 12-myristate 13-acetate induced ear edema in CD1 mice. The class given is in vivo. Conditions: Mus musculus, topical, 6 h; applied topically once in a dose 500 μg/ear; PMA induced ear edema. Here is the method: Phorbol 12-Myristate 13-Acetate Induced Ear Edema in CD1 Mice
Male CD1 mice (Charles River, France) weighing 30-40 g are randomly grouped (n=8 in test group of which the untreated ear serves as negative control; 8 in positive control group which also serves as their own negative control group). Test compounds, as well as vehicle (Trans-phase Delivery system, containing benzyl alcohol 10%, acetone 40% and isopropanol 50%) (all from Kemika, Croatia), are administered topically to the internal surface of the left ear 30 minutes prior to administration of phorbol 12-myristate 13-acetate (PMA) (Sigma, USA). Test compounds are administered at a dose 500 μg in 15 μL per ear. 30 minutes later, 0.01% PMA solution in acetone is applied topically to the inner surface of the left ear of each animal in a volume of 12 μL per ear. During the treatment and challenge, animals are anesthetized with anesthesia by inhalation. 6 h following challenge, animals are euthanized by intraperitoneal thiopental injection (PLIVA, Croatia). For assessing the auricular edema, 8 mm discs are cut out of left and right auricular pinna and weighed. The degree of edema is calculated by subtracting the weight of 8 mm disc of the untreated ear from that of the treated contralateral ear. The inhibition of edema in the treated animals is expressed as percentage compared to control mice.
As to `CC[C@H]1OC(=O)[C@H](C)[C@@H](O[C@H]2C[C@@](C)(OC)[C@@H](O)[C@H](C)O2)[C@H](C)[C@@H](O[C@@H]2O[C@H](C)C[C@H]3[C@H]2OC(=NC(C)C)N3C)[C@](C)(OC)C[C@@H](C)C(=O)N[C@H](C)[C@@H](O)[C@]1(C)O` (single isomer, unassigned) [Example 7, 2′-O,3′-N-(Carbonimidoyl)-3′-N-demethyl-N′-isopropyl-6-O-methyl-9a-aza-9a-homoerythromycin A], the inhibition in vivo at 500 µg/ear is greater than 50%.
The figure for `CCN=C1O[C@H]2[C@H](O[C@@H]3[C@@H](C)[C@H](O[C@H]4C[C@@](C)(OC)[C@@H](O)[C@H](C)O4)[C@@H](C)C(=O)O[C@H](CC)[C@@](C)(O)[C@H](O)[C@@H](C)C(=O)[C@H](C)C[C@@]3(C)OC)O[C@H](C)C[C@@H]2N1C` (single isomer, unassigned) [Example 14, 2′-O,3′-N-(Carbonimidoyl)-3′-N-demethyl-N′-ethyl-6-O-methyl-erythromycin A] is greater than 50%.
With `CC[C@H]1OC(=O)[C@H](C)[C@@H](O[C@H]2C[C@@](C)(OC)[C@@H](O)[C@H](C)O2)[C@H](C)[C@@H](O[C@@H]2O[C@H](C)C[C@H]3[C@H]2OC(=Nc2cccc4ccccc24)N3C)[C@](C)(O)C[C@@H](C)CN(C)[C@H](C)[C@@H](O)[C@]1(C)O` (single isomer, unassigned) [Example 2, 2′-O,3′-N-(Carbonimidoyl)-3′-N-demethyl-9-deoxo-9a-methyl-N′-(1-naphthyl)-9a-aza-9a-homoerythromycin A] the figure was greater than 50%; with `CC[C@H]1OC(=O)[C@H](C)[C@@H](O[C@H]2C[C@@](C)(OC)[C@@H](O)[C@H](C)O2)[C@H](C)[C@@H](O[C@@H]2O[C@H](C)C[C@H]3[C@H]2OC(=NCCCN(CC)CC)N3C)[C@](C)(OC)C[C@@H](C)C(=O)N[C@H](C)[C@@H](O)[C@]1(C)O` (single isomer, unassigned) [Example 8, 2′-O,3′-N-(Carbonimidoyl)-3′-N-demethyl-N′-[3-(diethylamino)propyl]-6-O-methyl-9a-aza-9a-homoerythromycin A], greater than 50%.
With `CC[C@H]1OC(=O)[C@H](C)[C@@H](O[C@H]2C[C@@](C)(OC)[C@@H](O)[C@H](C)O2)[C@H](C)[C@@H](O[C@@H]2O[C@H](C)C[C@H]3[C@H]2OC(=NCc2ccccc2)N3C)[C@](C)(O)C[C@@H](C)CN(C)[C@H](C)[C@@H](O)[C@]1(C)O` (single isomer, unassigned) [Example 1, N′-Benzyl-2′-O,3′-N-(carbonimidoyl)-3′-N-demethyl-9-deoxo-9a-methyl-9a-aza-9a-homoerythromycin A] the figure was greater than 50%; with `CC[C@H]1OC(=O)[C@H](C)[C@@H](O[C@H]2C[C@@](C)(OC)[C@@H](O)[C@H](C)O2)[C@H](C)[C@@H](O[C@@H]2O[C@H](C)C[C@H]3[C@H]2OC(=NC(C)C)N3C)[C@](C)(OC)C[C@@H](C)C(=O)[C@H](C)[C@@H](O)[C@]1(C)O` (single isomer, unassigned) [Example 11, 2′-O,3′-N-(Carbonimidoyl)-3′-N-demethyl-N′-isopropyl-6-O-methyl-erythromycin A], greater than 50%.
The compound `CC[C@H]1OC(=O)[C@H](C)[C@@H](O[C@H]2C[C@@](C)(OC)[C@@H](O)[C@H](C)O2)[C@H](C)[C@@H](O[C@@H]2O[C@H](C)C[C@H]3[C@H]2OC(=NC(C)C)N3C)[C@](C)(O)C[C@@H](C)CN(C)[C@H](C)[C@@H](O)[C@]1(C)O` (single isomer, unassigned) [Example 3, 2′-O,3′-N-(Carbonimidoyl)-3′-N-demethyl-9-deoxo-N′-isopropyl-9a-methyl-9a-aza-9a-homoerythromycin A] came in with an inhibition in vivo at 500 µg/ear greater than 50%.
As for `CC[C@H]1OC(=O)[C@H](C)[C@@H](O[C@H]2C[C@@](C)(OC)[C@@H](O)[C@H](C)O2)[C@H](C)[C@@H](O[C@@H]2O[C@H](C)C[C@H]3[C@H]2OC(=NC)N3C)[C@](C)(OC)C[C@@H](C)C(=O)[C@H](C)[C@@H](O)[C@]1(C)O` (single isomer, unassigned) [Example 13, 2′-O,3′-N-(Carbonimidoyl)-3′-N-demethyl-N′-methyl-6-O-methyl-erythromycin A], the inhibition in vivo at 500 µg/ear is greater than 50%.
With `CCN=C1O[C@H]2[C@H](O[C@@H]3[C@@H](C)[C@H](O[C@H]4C[C@@](C)(OC)[C@@H](O)[C@H](C)O4)[C@@H](C)C(=O)O[C@H](CC)[C@@](C)(O)[C@H](O)[C@@H](C)NC(=O)[C@H](C)C[C@@]3(C)OC)O[C@H](C)C[C@@H]2N1C` (single isomer, unassigned) [Example 15, 2′-O,3′-N-(Carbonimidoyl)-3′-N-demethyl-N′-ethyl-6-O-methyl-9a-aza-9a-homoerythromycin A] the figure was greater than 50%; with `CC[C@H]1OC(=O)[C@H](C)[C@@H](O[C@H]2C[C@@](C)(OC)[C@@H](O)[C@H](C)O2)[C@H](C)[C@@H](O[C@@H]2O[C@H](C)C[C@H]3[C@H]2O/C(=N/CCCN(CC)CC)N3C)[C@](C)(OC)C[C@@H](C)C(=O)[C@H](C)[C@@H](O)[C@]1(C)O` (single isomer, unassigned) [Example 12, 2′-O,3′-N-(Carbonimidoyl)-3′-N-demethyl-N′-[3-(diethylamino)propyl]-6-O-methyl-erythromycin A], greater than 50%.
